According to paper PMC8341399, “A STING-based fluorescent polarization assay for monitoring activities of cyclic dinucleotide metabolizing enzymes” (RSC Chemical Biology, 2020):
Where two headings read alike, the source gives them in different places.

Key:
hSTING [1] = molecular target: T1, hSTING (Homo sapiens, UniProt Q86WV6); assay: Probe displacement assay: F-c-di-GMP displaced from hSTING by unlabeled cyclic dinucleotides (FP); type: binding; settings: 50 nM F-c-di-GMP, 10 μM hSTING; read-out: apparent half maximal inhibitory concentration (displacement of F-c-di-GMP)
T1 construct: SUMO; His; made in house; host or cells: E. coli Rosetta 2(pLysS)

hSTING [2] = molecular target: T1, hSTING; settings: cited from earlier work; for Kd: natural cyclic dinucleotides, read-out: Kd (binding constant for hSTING)
hSTING [3] = molecular target: T1, hSTING; assay: hSTING titration of fluorescein-labeled cyclic dinucleotide probes by fluorescence polarization; type: binding; settings: 50 nM probe, 1× PBS, 5 min room temperature, n = 3; read-out: Kd (dissociation constant, probe-hSTING)
hENPP1 [4] = system: T2, hENPP1; assay: ENPP1 cGAMP hydrolysis tracking, HPLC analysis; type: biochemical, human; settings: ENPP1 9.16 nM, 50 μM cGAMP
T2 construct: purchased R&D Systems

hENPP1 [5] = system: T2, hENPP1; assay: ENPP1 cGAMP hydrolysis tracking, FP assay detection; type: biochemical, human; settings: ENPP1 9.16 nM, 50 μM cGAMP
[6] = ENPP1 hydrolysis products of cGAMP, stated without reference

T1 sequence (Q86WV6 155-341 limits assumed): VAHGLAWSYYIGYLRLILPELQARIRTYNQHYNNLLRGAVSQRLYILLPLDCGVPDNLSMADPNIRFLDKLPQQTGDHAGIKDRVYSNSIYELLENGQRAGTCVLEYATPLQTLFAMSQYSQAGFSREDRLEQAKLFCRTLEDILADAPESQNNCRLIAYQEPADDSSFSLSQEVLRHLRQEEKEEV

## Nc1ncnc2c1ncn2[C@@H]1O[C@@H]2COP(=O)(O)O[C@H]3[C@@H](O)[C@H](n4cnc5c(N)ncnc54)O[C@@H]3COP(=O)(O)O[C@H]2[C@H]1O [c-di-AMP]
hSTING [1]
  IC50: 7.35 ± 0.86 µM
hSTING [2]
  Kd: 1.38 µM

## Nc1ncnc2c1ncn2[C@@H]1O[C@H](COP(=O)(O)O)[C@@H](O)[C@H]1O [AMP]
hSTING [2]; [6]
  hSTING binding: do not bind

## Nc1nc2c(ncn2[C@@H]2O[C@H](COP(=O)(O)O)[C@@H](O)[C@H]2O)c(=O)[nH]1 [GMP]
hSTING [2]; [6]
  hSTING binding: do not bind

## 2′-O-(6-[fluoresceinyl]aminohexylcarbamoyl)-cyclic diadenosine monophosphate [F-c-di-AMP]
hSTING [3]
  Kd: 29.8 ± 6.3 µM

## 2′-O-(6-[fluoresceinyl]aminohexylcarbamoyl)-cyclic diguanosine monophosphate [F-c-di-GMP]
hSTING [3]
  Kd: 3.45 ± 0.48 µM

## Nc1nc2c(ncn2[C@@H]2O[C@@H]3COP(=O)(O)O[C@H]4[C@@H](O)[C@H](n5cnc6c(=O)[nH]c(N)nc65)O[C@@H]4COP(=O)(O)O[C@H]3[C@H]2O)c(=O)[nH]1 [c-di-GMP]
hSTING [1]
  IC50: 7.41 ± 0.49 µM
hSTING [2]
  Kd: 1.21 µM

## Nc1nc2c(ncn2[C@@H]2O[C@H](CO)[C@@H](O)[C@H]2OP(=O)(O)OC[C@H]2O[C@@H](n3cnc4c(N)ncnc43)[C@H](O)[C@@H]2OP(=O)(O)O)c(=O)[nH]1 [Gp[2′–5′]Ap[3′]]
hSTING [2]; poxin product of cGAMP
  hSTING binding: does not bind

## Nc1nc2c(ncn2[C@@H]2O[C@@H]3COP(=O)(O)O[C@H]4[C@@H](O)[C@H](n5cnc6c(N)ncnc65)O[C@@H]4COP(=O)(O)O[C@@H]2[C@@H]3O)c(=O)[nH]1 [cGAMP, 2′3-cGAMP]
hENPP1 [4]; 0 min
  cGAMP percent cleavage HPLC: 0%
hENPP1 [4]; 10 min
  cGAMP percent cleavage HPLC: 44%
hENPP1 [4]; 20 min
  cGAMP percent cleavage HPLC: 56%
hENPP1 [4]; 40 min
  cGAMP percent cleavage HPLC: 76%
hENPP1 [4]; 50 min
  cGAMP percent cleavage HPLC: 85%
hENPP1 [5]; 0 min
  cGAMP percent cleavage FP Assay: 0%
hENPP1 [5]; 10 min
  cGAMP percent cleavage FP Assay: 49%
hENPP1 [5]; 20 min
  cGAMP percent cleavage FP Assay: 77%
hENPP1 [5]; 30 min
  cGAMP percent cleavage FP Assay: 98%
hENPP1 [5]; 40 min
  cGAMP percent cleavage FP Assay: 95%
hENPP1 [5]; 50 min (assumed 100% cleavage)
  cGAMP percent cleavage FP Assay: 100%
